{"source": "patent US20250154140A1", "about": "(Sunnybrook Research Institute, priority 2022, published 2025)", "key": {"[1]": {"test_system": "Baby Mouse Kidney (BMK) cells", "experiment": "Actinomycin D / spontaneous cell death assay in BMK cells", "format": "cell-based", "conditions": "for tolerability by the cells: BMKwt cells; for effect on spontaneous cell death / effect on actinomycin D induced cell death: BMKwt; for effect on spontaneous cell death: 0 mM actinomycin D; for effect on actinomycin D induced cell death: 3.125, 6.25, 12.5 nM actinomycin D", "protocol": "Baby Mouse Kidney (BMK) cells were from (Mathew et al., 2008). BMK double knockout, SMAC-mCherry, and BAX^−/− cell lines were generated in house as described (Niu et al., 2017). BMK lines were grown in DMEM supplemented with 10% Fetal Bovine Serum and 1×MEM non-essential amino acids in a humidified incubator at 37° C. and 5% CO2.\nFor cell death assays with actinomycin D, 3000 WT or DKO BMK cells were cultured in a 384 well plate and incubated overnight. The next morning, cells were treated with actinomycin D for 2 hours before the addition of BAX inhibitor. Actinomycin D and BAX inhibitor (where relevant) were then incubated for 24 hours before staining with Hoechst, AnnexinV-Alexa488, and TMRE for 30 minutes. Cells were imaged by confocal microscopy (Opera Phenix—PerkinElmer) and subsequently analyzed with Harmony (PerkinElmer) software. Cell death was scored by three criteria: the loss of TMRE signal, the appearance of AnnexinV-Alexa488 signal, and nuclear shrinkage visualized by Hoechst."}, "BAX": {"target": "BAX (Homo sapiens, UniProt Q07812)", "sequence (Q07812 whole entry)": "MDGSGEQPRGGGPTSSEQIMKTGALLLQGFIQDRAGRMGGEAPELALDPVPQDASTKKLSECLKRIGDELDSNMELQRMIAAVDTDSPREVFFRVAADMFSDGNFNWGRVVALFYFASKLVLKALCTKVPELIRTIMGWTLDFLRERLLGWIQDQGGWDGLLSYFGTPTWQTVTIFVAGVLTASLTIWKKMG", "experiment": "Permeabilization of isolated mitochondria, Smac-mCherry release (cBID activated BAX)", "format": "biochemical, mouse", "design": "made in house; host or cells: Escherichia coli BL21-AI", "conditions": "concentrations up to 60 uM", "protocol": "Animal breeding and handling was performed in accordance with local regulations after approval by the Animal Care Committee at Sunnybrook Research Institute, Toronto. The isolation of mouse-liver mitochondria, and use with Bcl-2 family proteins to measure activity and protein-protein interactions was previously described in detail (Pogmore et al., 2016). In mouse liver, BAX is either cytoplasmic or loosely bound to mitochondria. Therefore, BAX is not present in isolated mitochondria. For this reason, when mitochondria are isolated from liver from BAK−/− mice they contain neither BAX or BAK. […] The supernatant was discarded, and the remaining pellet is resuspended in regeneration buffer (300 mM Trehalose, 10 mM HEPES-KOH pH 7.7, 80 mM KCl, 1 mM EGTA, 1 mM EDTA, 0.1% BSA, 5 mM succinate, 2 mM ATP, 10 μM phosphocreatine, and 10 μg/mL creatine kinase) at a protein concentration of 1 mg/mL, (determined by Bradford assay) for immediate use as the source of membranes for FRET measurements. […]\nFor BAX^−/−/BAK^−/−BMK SMAC-mCherry mitochondria, 2 nM cBID and 20 nM BAX was used to fully permeabilize the mitochondria. […] The percentage of SMAC-mCherry release was determined by fluorometric analysis of the supernatant and pellet fractions by measuring the fluorescence intensity (F) of mCherry (excitation 580, emission 610 in a Tecan M1000)."}}}
{"compound": "COc1cc2ccnc(Nc3ccc(F)c(Cl)c3)c2cc1NC(=O)CCCN1CCCCC1", "note": "[Compound I-1, N-(1-((3-chloro-4-fluorophenyl)amino)-6-methoxyisoquinolin-7-yl)-4-(piperidin-1-yl)butanamide]", "values": [{"measurement": "inhibition of actinomycin D mediated cell death in cells expressing either BAX or BAK", "setting": "[1]; 1.25 or 2.5 uM compound, actinomycin D 25 nM (wild-type), 100 nM (knock-out)", "result": "most effective inhibitor"}, {"measurement": "tolerability by the cells", "setting": "[1]", "result": "well-tolerated"}, {"measurement": "effect on spontaneous cell death", "setting": "[1]", "result": "reduced the amount of spontaneous cell death"}, {"measurement": "effect on actinomycin D induced cell death", "setting": "[1]", "result": "reduced cell death"}, {"measurement": "inhibition of BAX mediated permeabilization of mitochondria", "setting": "BAX", "result": "equally effective inhibitors"}]}
{"compound": "COc1cc2ncnc(Nc3ccc(F)c(Cl)c3)c2cc1NC(=O)/C=C/CN1CCCCC1", "note": "[Dacomitinib, reference compound]", "values": [{"measurement": "spontaneous cell death in culture", "setting": "[1]; BMK-wt, 0 nM actinomycin D, from ~30% without compound", "result": "< 10", "unit": "%"}, {"measurement": "tolerability by the cells", "setting": "[1]", "result": "well-tolerated"}, {"measurement": "effect on spontaneous cell death", "setting": "[1]", "result": "reduced the amount of spontaneous cell death"}, {"measurement": "effect on actinomycin D induced cell death", "setting": "[1]", "result": "reduced cell death"}, {"measurement": "inhibition of BAX mediated permeabilization of mitochondria", "setting": "BAX", "result": "equally effective inhibitors"}]}
